Laboratory results published in patent US20240315993A1, “ANTIPARASITIC COMPOUNDS” (Intervet Inc., priority 2021, published 2024).
Where two headings read alike, the source gives them in different places.

Tests used:
[1] = system: Rhipicephalus sanguineus or Haemaphysalis elliptica ticks; assay: Dog - efficacy against ticks; format: in vivo; details: for efficacy against ticks in dogs (conclusion): 10 mg/kg; for therapeutic efficacy against ticks (active = efficacy ≥80 percent): D2; for active against ticks up to (efficacy ≥80 percent): repeated infestations
Experimental: (§1) Beagle dogs were infested (whole body) with 80 Ctenocephalides felis fleas and 50 Rhipicephalus sanguineus or Haemaphysalis elliptica ticks (sex ratio 1:1) two days before the treatment day (Day 0), and repeatedly thereafter. Dogs of treatment groups were treated with 10 mg/kg bodyweight of a test compound orally (compound weighed in gelatin capsule), topically (spot-on, DMA 92%/DEET 8%) or subcutaneously (PEG 200 90%/water for injection 10%). Dogs of the negative control group received only an empty gelatin capsule orally and the spot-on formulation excipients topically.
(§2) Compounds with efficacy ≥80 percent were found active.

[2] = system: juvenile soft ticks (Ornithodoros moubata); assay: Guinea pig - efficacy against argaside tick; format: in vivo
Procedure, shortened: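 Guinea pigs given 5 mg/kg test compound orally (gavage) or s.c. in 10% DMF/emulsifier plus 90% water for injection, with local co-infestations of Ornithodoros moubata juveniles and Cimex lectularius at several post-treatment times. Engorged parasites scored dead/damaged about 24 h after collection; % inhibition versus pretreatment baseline by modified Schneider-Orelli formula.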

[3] = system: Mobile stages of sea lice (pre-adults, adults of Lepeophtheirus salmonis); assay: Adult sea lice contact assay; details: read-out: EC50 (sea lice inhibition, dead+damaged)
Experimental: Mobile stages of sea lice (i.e., pre-adults, adults of Lepeophtheirus salmonis) were exposed to seawater spiked with declining concentrations of a test compound (dissolved in a PEG sea-water mixture). Sea lice inhibition (% of dead+damaged sea lice) was assessed after approximately 1 and 24 hours of continuous exposure in comparison to a negative (solvent) control group.

[4] = system: Ctenocephalides felis fleas; assay: Dog - efficacy against fleas; format: in vivo; details: for efficacy against fleas in dogs (conclusion): 10 mg/kg; for therapeutic efficacy against fleas (active = efficacy ≥80 percent): D2
Experimental: as §1, §2

[5] = system: Lepeophtheirus salmonis; assay: Salmon - in vivo efficacy against sea lice using gavage administration; details: po, 168 h
[6] = system: Copepodids (juvenile sea lice stage of Lepeophtheirus salmonis); assay: Juvenile sea lice contact assay; details: Lepeophtheirus salmonis, read-out: Sea lice inhibition (% of dead+damaged copepodids)
Experimental: Copepodids (juvenile sea lice stage of Lepeophtheirus salmonis) were exposed to seawater spiked with declining concentrations of a test compound (dissolved in a DMSO sea-water mixture). Sea lice inhibition (% of dead+damaged copepodids) was assessed after approximately 24 hours of continuous exposure. The vitality of used parasites was confirmed in a negative (solvent) control group.

[7] = system: Rhipicephalus microplus; assay: Cattle - efficacy against one-host tick; format: in vivo
Procedure, shortened: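 Cattle infested whole-body with up to 3000 R. microplus larvae two or three times weekly around Day 0, then given 1 mg/kg subcutaneously or topically (spray or pour-on); controls got excipients only. Engorged females dropping were counted daily; efficacy by ADEQ per WAAVP guidelines, onset/duration as first/last day ≥80%.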

[8] = system: Rhipicephalus appendiculatus; assay: Cattle - efficacy against multi-host ticks (Rhipicephalus appendiculatus); format: in vivo; details: for effective in treating existing tick infestations: 5 mg/kg, both administration routes (topical, subcutaneous)
Experimental: (§3) Cattle were treated subcutaneously or topically (pour-on) at a dose of 5 mg/kg bodyweight of a test compound (Day 0). As subcutaneous formulation NMP 60%/PEG300 40% was used, and as pour-on formulation DMA 92%/DEET 8% was used. Cattle of the negative control group received only the formulation excipients of both formulations (SC, pour-on).
(§4) Cattle were locally infested with 30 to 40 unfed adult ticks each of Rhipicephalus appendiculatus and Dermacenter variabilis (for both species sex ratio 1:1), by placing the ticks in an ear sleeve (R. appendiculatus) or a stockinet patch attached to the body side (D. variabilis) once before treatment, and at different time points after treatment. Free (i.e., non-attached ticks) were removed from ear sleeves/stockinet patches two days after each infestation and were excluded from the efficacy calculation.
as §2

[9] = system: Dermacenter variabilis; assay: Cattle - efficacy against multi-host ticks (Dermacenter variabilis); format: in vivo; details: for effective in treating existing tick infestations: 5 mg/kg, both administration routes (topical, subcutaneous)
Experimental: as §3, §4, §2

[10] = 5 mg/kg subcutaneous, after 7 days
[11] = 5 mg/kg subcutaneous, after 10 days
[12] = 1 mg/kg topical (Compound 4: spray solution; others: DMA 92%/DEET 8% pour-on)
[13] = 5 mg/kg subcutaneous, re-infested after 7 days
[14] = 5 mg/kg subcutaneous, re-infested after 14 days
[15] = 5 mg/kg subcutaneous, re-infested after 21 days
[16] = 5 mg/kg subcutaneous, re-infested after 28 days
[17] = 5 mg/kg subcutaneous, re-infested after 35 days
[18] = 5 mg/kg subcutaneous, therapeutic, Day 2
[19] = 5 mg/kg topical pour-on, re-infested after 7 days
[20] = 5 mg/kg topical pour-on, re-infested after 14 days
[21] = 5 mg/kg topical pour-on, re-infested after 21 days
[22] = 5 mg/kg topical pour-on, re-infested after 28 days
[23] = 5 mg/kg topical pour-on, re-infested after 35 days
[24] = 5 mg/kg topical pour-on, therapeutic, Day 2
[25] = 1 mg/kg pour on in Imwitor 988+Miglyol 840

O=C(Nc1ccc(F)cc1F)c1cc(NC(=O)[C@H]2[C@H](c3ccc(F)c(Cl)c3)C2(Cl)Cl)ccc1Cl [Compound 197]
efficacy against ticks in dogs (conclusion) [1]: therapeutic efficacy | therapeutic efficacy against ticks (active = efficacy ≥80 percent) ([1]; 10 mg/kg oral): active | active against ticks up to (efficacy ≥80 percent) ([1]; 10 mg/kg topical spot-on): 70/72 | activity against tick nymphs (≥80% inhibition, killed+damaged) ([2]; 5 mg/kg oral, Day 0): immediate activity | activity against tick nymphs (≥80% inhibition, killed+damaged) ([2]; 5 mg/kg oral, after 7 days): activity | activity against tick nymphs (≥80% inhibition, killed+damaged) ([2]; 5 mg/kg subcutaneous, Day 0): immediate activity | activity against tick nymphs (≥80% inhibition, killed+damaged) [2, 10]: activity | activity against tick nymphs (≥80% inhibition, killed+damaged) [2, 11]: activity | duration of efficacy, subcutaneous compared with oral administration ([2]; 5 mg/kg, ticks and bed bugs): longer duration of efficacy | EC50 [3]: 0.01 to 0.025 µM | efficacy against fleas in dogs (conclusion) [4]: therapeutic efficacy | therapeutic efficacy against fleas (active = efficacy ≥80 percent) ([4]; 10 mg/kg oral): active | therapeutic efficacy against fleas (active = efficacy ≥80 percent) ([4]; 10 mg/kg topical spot-on): active | inhibition in vivo at 5 mg/kg ([5]; read-out: therapeutic efficacy against (pre-)adult sea lice (% reduction vs control)): 80% | inhibition at 0.001 µM ([6]; 24 h): 100% | duration of efficacy (last Day with efficacy ≥80 percent) ([7]; 1 mg/kg subcutaneous): ≥ 120 days | onset of efficacy (first Day with efficacy ≥80 percent) ([7]; 1 mg/kg subcutaneous): 3 days | duration of efficacy (last Day with efficacy ≥80 percent) [7, 12]: 47 days | onset of efficacy (first Day with efficacy ≥80 percent) [7, 12]: 2 days | efficacy ≥80 percent against Rhipicephalus appendiculatus [8, 13]: prophylactic efficacy | efficacy ≥80 percent against Rhipicephalus appendiculatus [8, 14]: prophylactic efficacy | efficacy ≥80 percent against Rhipicephalus appendiculatus [8, 15]: prophylactic efficacy | efficacy ≥80 percent against Rhipicephalus appendiculatus [8, 16]: prophylactic efficacy | efficacy ≥80 percent against Rhipicephalus appendiculatus [8, 17]: prophylactic efficacy | efficacy ≥80 percent against Rhipicephalus appendiculatus [8, 18]: therapeutic efficacy | efficacy ≥80 percent against Rhipicephalus appendiculatus [8, 19]: prophylactic efficacy | efficacy ≥80 percent against Rhipicephalus appendiculatus [8, 20]: prophylactic efficacy | efficacy ≥80 percent against Rhipicephalus appendiculatus [8, 21]: prophylactic efficacy | efficacy ≥80 percent against Rhipicephalus appendiculatus [8, 22]: prophylactic efficacy | efficacy ≥80 percent against Rhipicephalus appendiculatus [8, 23]: prophylactic efficacy | efficacy ≥80 percent against Rhipicephalus appendiculatus [8, 24]: therapeutic efficacy | effective in treating existing tick infestations [8]: 100% | efficacy ≥80 percent against Dermacenter variabilis [9, 13]: prophylactic efficacy | efficacy ≥80 percent against Dermacenter variabilis [9, 14]: prophylactic efficacy | efficacy ≥80 percent against Dermacenter variabilis [9, 15]: prophylactic efficacy | efficacy ≥80 percent against Dermacenter variabilis [9, 16]: prophylactic efficacy | efficacy ≥80 percent against Dermacenter variabilis [9, 18]: therapeutic efficacy | efficacy ≥80 percent against Dermacenter variabilis [9, 19]: prophylactic efficacy | efficacy ≥80 percent against Dermacenter variabilis [9, 20]: prophylactic efficacy | efficacy ≥80 percent against Dermacenter variabilis [9, 21]: prophylactic efficacy | efficacy ≥80 percent against Dermacenter variabilis [9, 24]: therapeutic efficacy | effective in treating existing tick infestations [9]: 100%

O=C(Nc1ncc(F)cc1F)c1cc(NC(=O)[C@H]2[C@H](c3cc(Cl)cc(Cl)c3)C2(Cl)Cl)ccc1Cl [Compound 453]
efficacy against ticks in dogs (conclusion) [1]: therapeutic efficacy | therapeutic efficacy against ticks (active = efficacy ≥80 percent) ([1]; 10 mg/kg oral): active | therapeutic efficacy against ticks (active = efficacy ≥80 percent) ([1]; 10 mg/kg topical spot-on): active | active against ticks up to (efficacy ≥80 percent) ([1]; 10 mg/kg topical spot-on): 70/72 | activity against tick nymphs (≥80% inhibition, killed+damaged) ([2]; 5 mg/kg oral, Day 0): immediate activity | activity against tick nymphs (≥80% inhibition, killed+damaged) ([2]; 5 mg/kg oral, after 7 days): activity | activity against tick nymphs (≥80% inhibition, killed+damaged) ([2]; 5 mg/kg oral, after 10 days): activity | activity against tick nymphs (≥80% inhibition, killed+damaged) ([2]; 5 mg/kg subcutaneous, Day 0): immediate activity | activity against tick nymphs (≥80% inhibition, killed+damaged) [2, 10]: activity | activity against tick nymphs (≥80% inhibition, killed+damaged) [2, 11]: activity | effective to control ticks ([2]; 5 mg/kg, at least until Day 10, both administration routes (oral, subcutaneous)): 100% | EC50 ([3]; pre-adults/adults, assessed after ~1 and 24 h): ≤ 0.01 µM | efficacy against fleas in dogs (conclusion) [4]: therapeutic efficacy | therapeutic efficacy against fleas (active = efficacy ≥80 percent) ([4]; 10 mg/kg oral): active | therapeutic efficacy against fleas (active = efficacy ≥80 percent) ([4]; 10 mg/kg topical spot-on): active | inhibition in vivo at 5 mg/kg ([5]; read-out: therapeutic efficacy against (pre-)adult sea lice (% reduction vs control), salmon, 5 mg/kg once by gavage, day -28 infestation, counted day 7): 100% | inhibition at 0.001 µM ([6]; 1 nM in seawater, ~24 h): 100% | duration of efficacy (last Day with efficacy ≥80 percent) [7, 25]: 77 days | onset of efficacy (first Day with efficacy ≥80 percent) [7, 25]: 1 days | duration of efficacy (last Day with efficacy ≥80 percent) ([7]; 1 mg/kg pour on in Miglyol 840): 84 days | onset of efficacy (first Day with efficacy ≥80 percent) ([7]; 1 mg/kg pour on in Miglyol 840): 2 days | duration of efficacy (last Day with efficacy ≥80 percent) ([7]; 1 mg/kg subcutaneous): 82 days | onset of efficacy (first Day with efficacy ≥80 percent) ([7]; 1 mg/kg subcutaneous): 3 days | duration of efficacy (last Day with efficacy ≥80 percent) [7, 12]: 63 days | onset of efficacy (first Day with efficacy ≥80 percent) [7, 12]: 3 days | efficacy ≥80 percent against Rhipicephalus appendiculatus [8, 13]: prophylactic efficacy | efficacy ≥80 percent against Rhipicephalus appendiculatus [8, 14]: prophylactic efficacy | efficacy ≥80 percent against Rhipicephalus appendiculatus [8, 15]: prophylactic efficacy | efficacy ≥80 percent against Rhipicephalus appendiculatus [8, 16]: prophylactic efficacy | efficacy ≥80 percent against Rhipicephalus appendiculatus [8, 17]: prophylactic efficacy | efficacy ≥80 percent against Rhipicephalus appendiculatus [8, 18]: therapeutic efficacy | efficacy ≥80 percent against Rhipicephalus appendiculatus [8, 19]: prophylactic efficacy | efficacy ≥80 percent against Rhipicephalus appendiculatus [8, 20]: prophylactic efficacy | efficacy ≥80 percent against Rhipicephalus appendiculatus [8, 21]: prophylactic efficacy | efficacy ≥80 percent against Rhipicephalus appendiculatus [8, 22]: prophylactic efficacy | efficacy ≥80 percent against Rhipicephalus appendiculatus [8, 23]: prophylactic efficacy | efficacy ≥80 percent against Rhipicephalus appendiculatus [8, 24]: therapeutic efficacy | effective in treating existing tick infestations [8]: 100% | efficacy ≥80 percent against Dermacenter variabilis [9, 13]: prophylactic efficacy | efficacy ≥80 percent against Dermacenter variabilis [9, 14]: prophylactic efficacy | efficacy ≥80 percent against Dermacenter variabilis [9, 15]: prophylactic efficacy | efficacy ≥80 percent against Dermacenter variabilis [9, 16]: prophylactic efficacy | efficacy ≥80 percent against Dermacenter variabilis [9, 17]: prophylactic efficacy | efficacy ≥80 percent against Dermacenter variabilis [9, 18]: therapeutic efficacy | efficacy ≥80 percent against Dermacenter variabilis [9, 19]: prophylactic efficacy | efficacy ≥80 percent against Dermacenter variabilis [9, 20]: prophylactic efficacy | efficacy ≥80 percent against Dermacenter variabilis [9, 21]: prophylactic efficacy | efficacy ≥80 percent against Dermacenter variabilis [9, 22]: prophylactic efficacy | efficacy ≥80 percent against Dermacenter variabilis [9, 23]: prophylactic efficacy | efficacy ≥80 percent against Dermacenter variabilis [9, 24]: therapeutic efficacy | effective in treating existing tick infestations [9]: 100%
